According to PubChem BioAssay (NCI):
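48-hour exposure; five concentrations; linearly interpolated endpoints. TGI: total growth inhibition.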

Assays:
Test in all cases: NCI-60 cell line screen, 48 h
[1] = tested on: 786-0 renal
[2] = tested on: A498 renal
[3] = tested on: A549 NSCLC
[4] = tested on: ACHN renal
[5] = tested on: CAKI-1 renal
[6] = tested on: CCRF-CEM leukemia
[7] = tested on: COLO 205 colon
[8] = tested on: DU-145 prostate
[9] = tested on: EKVX NSCLC
[10] = tested on: HCC-2998 colon
[11] = tested on: HCT-116 colon
[12] = tested on: HCT-15 colon
[13] = tested on: HL-60(TB) leukemia
[14] = tested on: HOP-62 NSCLC
[15] = tested on: HOP-92 NSCLC
[16] = tested on: HS 578T breast
[17] = tested on: HT29 colon
[18] = tested on: IGROV1 ovarian
[19] = tested on: K-562 leukemia
[20] = tested on: KM12 colon
[21] = tested on: LOX IMVI melanoma
[22] = tested on: M14 melanoma
[23] = tested on: MALME-3M melanoma
[24] = tested on: MCF7 breast
[25] = tested on: MDA-MB-231 breast
[26] = tested on: MDA-MB-435
[27] = tested on: MDA-N
[28] = tested on: MOLT-4 leukemia
[29] = tested on: NCI-H226 lung
[30] = tested on: NCI-H23 lung
[31] = tested on: NCI-H460 lung
[32] = tested on: NCI-H522 lung
[33] = tested on: NCI/ADR-RES ovarian
[34] = tested on: OVCAR-3 ovarian
[35] = tested on: OVCAR-4 ovarian
[36] = tested on: OVCAR-5 ovarian
[37] = tested on: OVCAR-8 ovarian
[38] = tested on: PC-3 prostate
[39] = tested on: RPMI-8226 leukemia
[40] = tested on: RXF 393 renal
[41] = tested on: SF-268 CNS
[42] = tested on: SF-295 CNS
[43] = tested on: SF-539 CNS
[44] = tested on: SK-MEL-2 melanoma
[45] = tested on: SK-MEL-28 melanoma
[46] = tested on: SK-MEL-5 melanoma
[47] = tested on: SK-OV-3 ovarian
[48] = tested on: SN12C renal
[49] = tested on: SNB-19 CNS
[50] = tested on: SW-620 colon
[51] = tested on: T-47D breast
[52] = tested on: TK-10 renal
[53] = tested on: U251 CNS
[54] = tested on: UACC-257 melanoma
[55] = tested on: UACC-62 melanoma
[56] = tested on: UO-31 renal
[57] = tested on: SNB-75 CNS
[58] = tested on: SR leukemia

With `COc1ccc(C2OC(c3ccncc3)=NN2C)cc1OC` (configuration not stated) the TGI [1] was > 100 µM, the TGI [2] was 98.4 µM and the TGI [3] was > 100 µM. For the same compound, the TGI [4] was > 100 µM, the TGI [5] was > 100 µM and the TGI [6] was > 100 µM. The TGI [7] was > 100 µM, the TGI [8] was > 100 µM and the TGI [9] was > 100 µM. For the same compound, the TGI [10] was > 100 µM, the TGI [11] was > 100 µM and the TGI [12] was > 100 µM. The TGI [13] was > 100 µM, the TGI [14] was > 100 µM and the TGI [15] was > 100 µM. For the same compound, the TGI [16] was > 100 µM, the TGI [17] was > 100 µM and the TGI [18] was > 100 µM. For the same compound, the TGI [19] was > 100 µM, the TGI [20] was > 100 µM and the TGI [21] was > 100 µM. For the same compound, the TGI [22] was > 100 µM, the TGI [23] was > 100 µM and the TGI [24] was > 100 µM. For the same compound, the TGI [25] was > 100 µM, the TGI [26] was > 100 µM and the TGI [27] was > 100 µM. For the same compound, the TGI [28] was > 100 µM, the TGI [29] was > 100 µM and the TGI [30] was > 100 µM. For the same compound, the TGI [31] was > 100 µM, the TGI [32] was > 100 µM and the TGI [33] was > 100 µM. The TGI [34] was > 100 µM, the TGI [35] was > 100 µM and the TGI [36] was > 100 µM. For the same compound, the TGI [37] was > 100 µM, the TGI [38] was > 100 µM and the TGI [39] was > 100 µM. For the same compound, the TGI [40] was > 100 µM, the TGI [41] was > 100 µM and the TGI [42] was > 100 µM. The TGI [43] was > 100 µM, the TGI [44] was > 100 µM and the TGI [45] was > 100 µM. For the same compound, the TGI [46] was > 100 µM, the TGI [47] was > 100 µM and the TGI [48] was > 100 µM. For the same compound, the TGI [49] was > 100 µM, the TGI [50] was > 100 µM and the TGI [51] was > 100 µM. For the same compound, the TGI [52] was > 100 µM, the TGI [53] was > 100 µM and the TGI [54] was > 100 µM. The TGI [55] was > 100 µM and the TGI [56] was > 100 µM.

With `COc1ccc(/C=C/c2cc(OC)cc(=O)o2)cc1` the TGI [1] was > 100 µM, the TGI [3] was > 100 µM and the TGI [4] was > 100 µM. For the same compound, the TGI [5] was > 100 µM, the TGI [6] was > 100 µM and the TGI [7] was > 100 µM. The TGI [8] was > 100 µM, the TGI [9] was > 100 µM and the TGI [10] was > 100 µM. The TGI [11] was > 100 µM, the TGI [12] was > 100 µM and the TGI [13] was > 100 µM. The TGI [14] was > 100 µM, the TGI [15] was > 100 µM and the TGI [16] was > 100 µM. The TGI [17] was > 100 µM, the TGI [18] was > 100 µM and the TGI [19] was > 100 µM. The TGI [20] was > 100 µM, the TGI [21] was > 100 µM and the TGI [22] was > 100 µM. The TGI [23] was > 100 µM, the TGI [24] was > 100 µM and the TGI [25] was > 100 µM. The TGI [26] was > 100 µM, the TGI [27] was > 100 µM and the TGI [28] was > 100 µM. For the same compound, the TGI [29] was > 100 µM, the TGI [30] was > 100 µM and the TGI [31] was > 100 µM. For the same compound, the TGI [33] was > 100 µM, the TGI [34] was > 100 µM and the TGI [35] was > 100 µM. For the same compound, the TGI [36] was > 100 µM, the TGI [37] was > 100 µM and the TGI [38] was > 100 µM. The TGI [39] was > 100 µM, the TGI [40] was > 100 µM and the TGI [41] was > 100 µM. For the same compound, the TGI [42] was > 100 µM, the TGI [43] was 46.1 µM and the TGI [44] was > 100 µM. For the same compound, the TGI [45] was > 100 µM, the TGI [46] was > 100 µM and the TGI [47] was > 100 µM. For the same compound, the TGI [48] was > 100 µM, the TGI [49] was > 100 µM and the TGI [57] was 44.6 µM. The TGI [58] was > 100 µM, the TGI [50] was > 100 µM and the TGI [51] was > 100 µM. The TGI [52] was > 100 µM, the TGI [53] was 76.9 µM and the TGI [54] was > 100 µM. For the same compound, the TGI [55] was > 100 µM and the TGI [56] was > 100 µM.
